We go through two molecules from patent publication US20170165374A1, “COMPOSITIONS AND METHODS FOR TREATING BACTERIAL INFECTIONS” (Insmed, Inc., priority 2015, published 2017).

Where a name gives a salt, the structure may show the parent alone.

Common to all, as to type: cell-based
The subject of assay [1] is M. abscessus type strain 19977. Put plainly: Intracellular CFU in M. abscessus infected THP-1 cells (THP-1 NTM model), strain 19977. As for the experimental part: (§1) THP-1 cells were seeded in PMA and cultured for 48 hours, exposed to M. abscessus (type strain 19977 or clinical isolate Stanford A or NIH26) at multiplicity of infection (MOI) of approx. 2 for 1 hour followed by incubation with […] amikacin sulfate for 23 hours to reduce the extracellular NTM population. Liposomal amikacin formulations were added at 16, 32, 64, and 128 μg/mL of active concentration and incubated for 24 hours at 37° C. At the end of four 24 hour treatment cycles, cells were washed, lysed, serially diluted, plated, and incubated at 37° C. for 4 days to determine final intracellular CFU counts. Formulations were loaded with streptomycin and tested against the M. abscessus strains 19977 and Stanford A. Results are shown in Table 8.

Assay [2] relates to M. abscessus clinical isolate NIH26. Put plainly: Intracellular CFU in M. abscessus infected THP-1 cells (THP-1 NTM model), NIH26. To be noted: NIH 26, 128 μg/mL amikacin. As for the experimental part:
as §1, with “counts.” for “counts. Formulations were loaded with streptomycin and tested against the M. abscessus strains 19977 and Stanford A. Results are shown in Table 8.”

Assay [3] relates to M. abscessus clinical isolate Stanford A. Put plainly: Intracellular CFU in M. abscessus infected THP-1 cells (THP-1 NTM model), Stanford A. Here is the method:
as §1

The mark [4] stands for this setting: 128 μg/mL amikacin, vs pretreatment.
Where [5] appears, read: 128 μg/mL streptomycin sulfate, vs pretreatment.

On to `NCC[C@H](O)C(=O)N[C@@H]1C[C@H](N)[C@@H](O[C@H]2O[C@H](CN)[C@@H](O)[C@H](O)[C@H]2O)[C@H](O)[C@H]1O[C@H]1O[C@H](CO)[C@@H](O)[C@H](N)[C@H]1O` [free ami, amikacin], for which the “In vitro killing (CFU remaining after 96 h treatment with 128 μg/mL ami-in THP-1 NTM model)” value in assay [1] (128 μg/mL amikacin) was 135000 CFU; in assay [2], 214667 CFU; in assay [3] (128 μg/mL amikacin), 135000 CFU. In addition, the results for the “In vitro killing (additional % CFU killed compared to pretreatment after 96 h treatment with 128 μg/mL ami in THP-1 NTM model)” value in assay [1] (setting [4]), in assay [2] (vs pretreatment) and in assay [3] (setting [4]) were 50.1%, 37.4% and 75%, respectively.

As to `[H]/N=C(/N)N[C@H]1[C@H](O)[C@@H](O)[C@H](O[C@@H]2O[C@@H](C)[C@](O)(C=O)[C@H]2O[C@@H]2O[C@@H](CO)[C@H](O)[C@@H](O)[C@@H]2NC)[C@@H](N/C(N)=N\[H])[C@@H]1O` [free streptomycin sulfate, streptomycin sulfate], the “In vitro killing (CFU remaining after 96 h treatment with 128 μg/mL streptomycin sulfate in THP-1 NTM model)” value in assay [1] (128 μg/mL streptomycin sulfate) is 408000 CFU; in assay [3] (128 μg/mL streptomycin sulfate), 424000 CFU. For the same molecule, the “In vitro killing (addtl. % CFU killed compared to pretreatment after 96 h treatment with 128 μg/mL streptomycin sulfate in THP-1 NTM model)” value in assay [1] (setting [5]) came out at 35.8%; in assay [3] (setting [5]), 27.4%.
